Reference: US9790221B2, “Heteroaryl compounds as IRAK inhibitors and uses thereof” (Merck Patent GmbH, priority 2014, dated 2017)
Where a name gives a salt, the structure may show the parent alone.

Key:
[1] = target: IRAK1 (His-TEV-IRAK1 (194-712)) (Homo sapiens (Human), UniProt P51617); assay: IRAK1 enzymatic assay; type: biochemical
Method: IRAK1 is a human purified recombinant enzyme (His-TEV-IRAK1 (194-712)). In this assay, IRAK-1 hydrolyses ATP and autophosphorylates. Measurement of IRAK-1 inhibition was performed in streptavidin coated 384well FlashPlate (PerkinElmer #SMP410A).
His-TEV-IRAK-1 (15 ng/well), ATP (1 μM, [33P]ATP 0.25 μCi/well) and compounds in DMSO (range of concentrations from 20 µM to 1 nM) or controls (2% DMSO) were incubated for 3 hours at 30° C. in assay buffer: Hepes pH7.0 50 mM, Fatty acid-free BSA 0.1%, Dithiothreitol DTT 2 mM, MgCl2 10 mM, EGTA 0.5 mM, Triton-X-100 0.01%. Kinase reaction was stopped by addition of EDTA. Supernatant was discarded, plates were washed three times with 150 mM NaCl and radioactivity was then measured in a Microbeta Trilux reader.

IRAK4 = IRAK4 (Homo sapiens (Human), UniProt Q9NWZ3); assay: IRAK4 enzymatic assay; type: biochemical
Chain of IRAK4 (Q9NWZ3 whole entry): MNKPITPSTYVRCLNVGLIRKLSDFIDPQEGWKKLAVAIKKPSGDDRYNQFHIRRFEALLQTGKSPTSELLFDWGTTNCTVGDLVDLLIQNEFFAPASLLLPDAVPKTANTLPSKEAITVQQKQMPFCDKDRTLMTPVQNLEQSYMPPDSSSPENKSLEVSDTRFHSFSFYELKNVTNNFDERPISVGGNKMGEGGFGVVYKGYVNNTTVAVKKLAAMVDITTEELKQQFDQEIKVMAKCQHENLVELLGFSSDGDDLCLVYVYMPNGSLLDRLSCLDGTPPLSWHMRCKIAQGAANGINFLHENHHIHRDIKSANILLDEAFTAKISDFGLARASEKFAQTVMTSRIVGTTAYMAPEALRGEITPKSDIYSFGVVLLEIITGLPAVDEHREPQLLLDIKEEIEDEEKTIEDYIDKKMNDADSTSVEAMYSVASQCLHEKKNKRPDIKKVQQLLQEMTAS
Method: IRAK4 is a human purified recombinant enzyme ([…]. IRAK4 hydrolyses ATP, autophosphorylates and phosphorylates a Serine/Threonine generic peptidic substrate (STK: 61ST1BLC from CisBio International based in Bagnols/Cèze FR).
Measurement of IRAK-4 inhibition was performed in streptavidin coated 384well FlashPlate (PerkinElmer #SMP410A). His-TEV-IRAK4 (20 ng/well), ATP (2 μM, [^33P]ATP 0.25 µCi/well), STK1-biotin peptide (300 nM) and compounds in DMSO (range of concentrations from 20 µM to 1 nM) or controls (2% DMSO) were incubated for 3 hours at 30° C. in assay buffer: Hepes pH7.0 50 mM, Fatty acid-free BSA 0.1%, Dithiothreitol DTT 2 mM, MgCl2 10 mM, EGTA 0.5 mM, Tween-20 0.01%, MnCl2 5 mM.
Kinase reaction was stopped by addition of EDTA. Supernatant was discarded, plates were washed three times with 150 mM NaCl and radioactivity was then measured in a Microbeta Trilux reader.

Chain of IRAK1 (His-TEV-IRAK1 (194-712)) (P51617 194-712): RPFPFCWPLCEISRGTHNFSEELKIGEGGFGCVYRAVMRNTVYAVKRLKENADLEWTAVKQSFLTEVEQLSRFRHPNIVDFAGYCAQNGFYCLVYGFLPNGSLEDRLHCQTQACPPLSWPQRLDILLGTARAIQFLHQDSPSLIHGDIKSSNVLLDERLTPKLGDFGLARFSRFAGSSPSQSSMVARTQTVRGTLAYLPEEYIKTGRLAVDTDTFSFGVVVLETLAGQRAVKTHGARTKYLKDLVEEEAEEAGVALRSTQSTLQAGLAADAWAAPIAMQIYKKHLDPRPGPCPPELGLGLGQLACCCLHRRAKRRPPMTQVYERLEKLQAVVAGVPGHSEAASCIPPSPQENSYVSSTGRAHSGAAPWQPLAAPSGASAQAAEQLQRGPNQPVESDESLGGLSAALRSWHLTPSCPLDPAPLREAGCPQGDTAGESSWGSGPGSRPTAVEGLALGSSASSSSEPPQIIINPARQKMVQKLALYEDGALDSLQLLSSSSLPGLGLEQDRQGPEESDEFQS

Row | IC50 [1] [nM] | IC50 (IRAK4) [nM] | SMILES
1 | > 5000 | < 100 | Cn1cc(-c2cccc(-c3ncc(-c4ccn(C)n4)c(N[C@H]4CCC[C@@H]4O)n3)c2)cn1 (racemic) [Example 95]
2 | > 5000 | 100 to 1000 | Cn1cc(-c2cccc(-c3ncc(-c4ccn(C)n4)c(NC[C@H]4CCNC[C@H]4O)n3)c2)cn1 (racemic) [Example 116]
3 | > 5000 | 100 to 1000 | Cn1cc(-c2cccc(-c3ncc(-c4cnn(C)c4)c(NC[C@H]4CCNC[C@H]4O)n3)c2)cn1 (racemic) [Example 126]
4 | 1000 to 5000 | < 100 | Cn1cc(-c2cccc(-c3ncc(-c4cnn(C)c4)c(NC[C@H]4CC[C@@H](O)C4)n3)c2)cn1 (racemic) [Example 164]
5 | 100 to 1000 | < 100 | Cn1cc(-c2cccc(-c3ncc(-c4cnn(C)c4)c(NC[C@H]4CC[C@H](O)C4)n3)c2)cn1 (racemic) [Example 165]
6 | 100 to 1000 | < 100 | Cn1cc(-c2cccc(-c3ncc(-c4cnn(C)c4)c(NCC4CCOC4)n3)c2)cn1 (racemic) [Example 166]
7 | 1000 to 5000 | < 100 | Cn1cc(-c2cccc(-c3ncc(-c4cnn(C)c4)c(N[C@@H]4CC[C@H](NS(C)(=O)=O)C4)n3)c2)cn1 (racemic) [Example 176]
8 | > 5000 | 100 to 1000 | CC(=O)N[C@@H]1CCC[C@@H]1CNc1nc(-c2cccc(-c3cnn(C)c3)c2)ncc1-c1cnn(C)c1 (relative stereo) [Example 206, N-[(Cis)-2-({5-(1-Methyl-1H-pyrazol-4-yl)-2-[3-(1-methyl-1H-pyrazol-4-yl)-phenyl]-pyrimidin-4-ylamino}-methyl)-cyclopentyl]-acetamide]
9 | 1000 to 5000 | 100 to 1000 | Cn1cc(-c2cccc(-c3ccc(-c4cnn(C5CCNCC5)c4)cn3)n2)cn1 [Example 2, 6′-(1-Methyl-1H-pyrazol-4-yl)-5-(1-piperidin-4-yl-1H-pyrazol-4-yl)-[2,2′]bipyridinyl]
10 | 1000 to 5000 | – | Cn1cc(-c2cccc(-c3ncc(-c4cnn(C)c4)c(NCC4CCCN(C(=O)OC(C)(C)C)C4)n3)c2)cn1 (centres unmarked) [Example 3, 3-({5-(1-Methyl-1H-pyrazol-4-yl)-2-[3-(1-methyl-1H-pyrazol-4-yl)-phenyl]-pyrimidin-4-ylamino}-methyl)-piperidine-1-carboxylic Acid Tert-Butyl Ester]
11 | 1000 to 5000 | 1000 to 5000 | Cn1cc(-c2cccc(-c3ncc(-c4cnn(C)c4)c(NCC4CCCNC4)n3)c2)cn1 (centres unmarked) [Example 4, {5-(1-Methyl-1H-pyrazol-4-yl)-2-[3-(1-methyl-1H-pyrazol-4-yl)-phenyl]-pyrimidin-4-yl}-piperidin-3-ylmethyl-amine Hydrochloride]
12 | 1000 to 5000 | > 5000 | Cn1cc(-c2cccc(-c3ncc(-c4cnn(C)c4)c(N4CCCC(CNC(=O)OC(C)(C)C)C4)n3)c2)cn1 (centres unmarked) [Example 5, (1-{5-(1-Methyl-1H-pyrazol-4-yl)-2-[3-(1-methyl-1H-pyrazol-4-yl)-phenyl]-pyrimidin-4-yl}-piperidin-3-ylmethyl)-carbamic Acid Tert-Butyl Ester]
13 | > 5000 | 1000 to 5000 | Cn1cc(-c2cccc(-c3ncc(-c4cnn(C)c4)c(N4CCCC(CN)C4)n3)c2)cn1 (centres unmarked) [Example 6, C-(1-{5-(1-Methyl-1H-pyrazol-4-yl)-2-[3-(1-methyl-1H-pyrazol-4-yl)-phenyl]-pyrimidin-4-yl}-piperidin-3-yl)-methylamine Hydrochoride]
14 | > 5000 | 1000 to 5000 | Cn1cc(-c2cccc(-c3ncc(-c4ccn(C)n4)c(OCC4CCCCO4)n3)c2)cn1 (centres unmarked) [Example 8, 5-(1-Methyl-1H-pyrazol-3-yl)-2-[3-(1-methyl-1H-pyrazol-4-yl)-phenyl]-4-(tetrahydro-pyran-2-ylmethoxy)-pyrimidine]
15 | > 5000 | > 5000 | Cn1cc(-c2cccc(-c3ncc(-c4ccn(C)n4)c(NCC4CCNCC4)n3)c2)cn1 [Example 12, {5-(1-Methyl-1H-pyrazol-3-yl)-2-[3-(1-methyl-1H-pyrazol-4-yl)-phenyl]-pyrimidin-4-yl}-piperidin-4-ylmethyl-amine]
